Measurements: patent publication US5639887A, “MDR reversal agents” (priority 1995, dated 1997)
In brackets after ≈: the same amount, converted by molar mass.

Key:
[1] = tested on: bisantrene-resistant human ovarian carcinoma cells S1-B1-20 (OVCAR-3 subclone); experiment: Screening assay for reversal agents: Difference Score with/without 20 μM bisantrene; type: cell-based; conditions: alone vs with 20 μM bisantrene, 3 days, difference in % cell survival; for Difference Score at 1 microM: test agent 1 microM; for Difference Score at 10 microM: test agent 10 microM; for Difference Score at 20 microM: test agent 20 microM
Description: Such cells are sorted by a fluorescent activated cell sorter (FACS; Becton Dickinson Model 440).
Cells, prepared by trypsinization, are plated at 20,000 cells/well in media with and without bisantrene. Then, test agents at varying concentrations are added to the cells. […] Completed plates are incubated for 3 days at 37° C. in a moisturized 7% CO2 atmosphere. […] Dye content/well is read at 540 nm in a microtiter reader. Values are electronically processed, % cell survival compared to untreated cells is computed, and the results are expressed as the difference between these values. Experiments are run in the presence of the test agent alone and the test agent in combination with 20 μM bisantrene. The Difference Score between those two experiments is reported below for 3 different concentrations of test agent.

[2] = tested on: vincristine resistant murine leukemia P388/VCR; experiment: In vivo evaluation of MDR-1 reversal agents against vincristine resistant murine leukemia P388/VCR implanted IP in CDF1 mice; conditions: for % ILS: vs vincristine alone
Description: Tumor cell ascites are harvested 5-7 days later. For drug testing, groups of 10-15 CDF1 mice (DBA/2×Balb/cF1 hybrids; Charles River Laboratories, Inc) are injected IP with 0.5 ml of diluted ascitic fluid containing 1×10^6 viable P388/VCR tumor cells. […] Drugs are administered once daily, by the IP, intravenous (IV) or oral route, starting one day after tumor implantation and using a variety of treatment schedules. Mice are weighed periodically, survival is recorded for 30 days post tumor implantation, and Mean survival times are calculated for all groups of mice. Statistical analysis of Mean survival times is carried out using the Student t-test.

[3] = tested on: human epidermoid carcinoma KB/8.5; experiment: In vivo evaluation of MDR-1 reversal agents against human epidermoid carcinoma KB/8.5 implanted SC in athymic nude mice; parameters: species or system human (tumor in athymic nude mice)
Description: The multiple drug resistant human epidermoid carcinoma KB/8.5 is propagated in medium containing colchicine (10 nanograms/ml) to maintain drug resistance. Colchicine is removed from the medium, for two cell passages, prior to subcutaneous (SC) implant of 8×10^6 KB/8.5 tumor cells into athymic "nude" mice (Harlan Sprague Dawley). […] Individual mouse tumor mass and mean tumor mass for each treatment group is determined on Day +14 and Day +21 of the test period. For each treatment group, the Relative Tumor Growth, RTG, is calculated as follows: [formula]
Statistical analysis of Log Relative Tumor Growth is carried out using the Student t-test. Transformation of the data from absolute mean tumor mass (mgs tumor mass) to Log Relative Tumor Growth prior to statistical analysis has two beneficial effects:
1) it corrects the data for differences in mean tumor mass of the different treatment groups at the start of the test period (Day 0); and
2) the Log transformation of the data more adequately reflects the exponential growth pattern of the SC tumors and makes the use of the Student t-test more appropriate.

[4] = Limit of solubility of bisantrene; type: physicochemical; conditions: cell culture medium; cell culture maintenance
[5] = tested on: multiple drug resistance tumor cells; conditions: background, resensitizing agents for treatment of cancer; cited from earlier work
[6] = vincristine 0.2 + compound 6.3 mg/kg, days 1-7, IP
[7] = doxorubicin 8 mg/kg IV + compound 25 mg/kg/dose SC at -2 h and +2 h
[8] = doxorubicin 8 mg/kg IV + compound 75 mg/kg/dose SC at -2 h and +2 h
[9] = doxorubicin 8 mg/kg IV + compound 200 mg/kg/dose SC at -2 h and +2 h
[10] = doxorubicin 8 mg/kg IV + compound 200 mg/kg/dose SC x2
[11] = doxorubicin 8 mg/kg IV + compound […] SC at -2 h and +2 h
[12] = vincristine 0.2 + compound 25 mg/kg, days 1-7, IP
[13] = doxorubicin 8 mg/kg IV + compound 150 mg/kg/dose SC at -2 h and +2 h
[14] = vincristine 0.2 + compound 25 mg/kg, days 1-5, IP
[15] = vincristine 0.2 + compound 50 mg/kg, days 1-5, IP
[16] = vincristine 0.4 + compound 25 mg/kg, days 1-3,6,7, IV
[17] = vincristine 0.4 + compound 50 mg/kg, days 1-3,6,7, IV
[18] = vincristine 0.6 + compound 6.3 mg/kg, days 1,5,9, IP
[19] = vincristine 0.6 + compound 25 mg/kg, days 1,2, IV
[20] = vincristine 0.6 + compound 25 mg/kg, days 1,5,9, IP
[21] = vincristine 0.6 + compound 50 mg/kg, days 1,2, IV
[22] = vincristine 0.8 + compound 25 mg/kg, days 1,2, IV

Molecule: COc1ccc(C(C#N)(CCCCCN2Cc3cc(OC)c(OC)cc3C2)SC2CCCCC2)cc1OC (stereo not drawn) [Example 86, α-(Cyclohexylthio)-α-(3,4-dimethoxyphenyl)-1,3-dihydro5,6-dimethoxy-2(1H)-isoindoleheptane nitrile]
- Difference Score at 1 microM [1]: 83
- Difference Score at 10 microM [1]: 77
- Difference Score at 20 microM [1]: 29

Molecule: COc1ccc(C(CCCCCN2CCc3cc(OC)c(OC)cc3C2)Sc2ccc(C)cc2)cc1OC (centres unmarked) [Example 41, 2-[6-(3,4-Dimethoxyphenvl]-6-[(4-methylphenyl)thio]-hexyl]-1,2,3,4-tetrahydro-6,7-dimethoxyisoquinoline]
- MST [2, 6]: 14.1 days
- % ILS [2, 6]: +13%
- Relative Tumor Growth Day 21 [3, 7]: 6.15
- Relative Tumor Growth Day 21 [3, 8]: 8.54
- Relative Tumor Growth Day 21 [3, 9]: 4.57
- toxicity remark (tox), Day 14 [3, 10]: tox
- toxicity remark (tox), Day 21 [3, 10]: tox
- Relative Tumor Growth Day 21 [3, 11]: 7.27

Molecule: C(=N\NC1=NCCN1)/c1c2ccccc2c(/C=N/NC2=NCCN2)c2ccccc12 [bisantrene]
- solubility [4]: 20 µM (≈ 7.97 µg/mL)

Molecule: 2-[6-Cyano-6(3,4-dimethoxyphenyl)-6-[(4-methylphenyl)-thio]hexyl]-1,2,3,4-tetrahydo-5-methoxy-7-isoquinoline trifluoromethanesulfonic acid [Example 102]
- Difference Score at 1 microM [1]: 30
- Difference Score at 10 microM [1]: 82
- Difference Score at 20 microM [1]: 82

Molecule: CN1CCN(CCCN2c3ccccc3Sc3ccc(C(F)(F)F)cc32)CC1 [trifluoroperizine]
- toxic side effects in the clinic [5]: limited by toxic side effects

Molecule: COc1ccc(C(C#N)(CCCCCN2Cc3cc(OC)c(OC)cc3C2)Sc2ccc(C)cc2)cc1OC (stereo not drawn) [Example 26, α-(3,4-Dimethoxyphenyl)-1,3-dihydro-5,6-dimethoxy-α-[(4-methylphenyl)thio]-2H-isoindole-2-heptanenitrile]
- MST [2, 6]: 13.8 days
- MST [2, 12]: 15.8 days
- % ILS [2, 6]: +23%
- % ILS [2, 12]: +41%
- Relative Tumor Growth Day 21 [3, 8]: 3.49
- Relative Tumor Growth Day 14 [3, 13]: Toxic
- Relative Tumor Growth Day 21 [3, 13]: Toxic
- Relative Tumor Growth Day 14 [3, 9]: Toxic
- Relative Tumor Growth Day 21 [3, 9]: Toxic

Molecule: 2-[7-(4-Fluorophenyl)-7-[(4-methylphenyl)thio]heptyl]-1,2,3,4-tetrahydro-6,7-isoquinoline [Example 95]
- Difference Score at 1 microM [1]: 28
- Difference Score at 10 microM [1]: 71
- Difference Score at 20 microM [1]: 57

Molecule: COc1ccc(C(C#N)(CCCCCN2Cc3cc(OC)c(OC)cc3C2)SC2CCCCC2)cc1OC.Cl (stereo not drawn) [Example 120, α-(Cyclohexylthio)-α-(3,4-dimethoxyphenyl)-1,3-dihydro 5,6-dimethoxy-2(1H)-isoindoleheptanenitrile hydrochloride]
- Difference Score at 1 microM [1]: 83
- Difference Score at 10 microM [1]: 59
- Difference Score at 20 microM [1]: 1

Molecule: COc1ccc(C(C#N)(CCCCCN2CCc3cc(OC)c(OC)cc3C2)Sc2ccc(C)cc2)cc1OC (stereo not drawn) [Example 17, α-(3,4-Dimethoxyphenyl)-3,4-dihydro-6,7-dimethoxy-α-[(4-methylphenyl)thio]-2(1H)-isoquinolineheptanenitrile]
- MST [2, 14]: 16.8 days
- MST [2, 15]: 16.1 days
- MST [2, 16]: 13.3 days
- MST [2, 17]: 13.4 days
- MST [2, 18]: 12.9 days
- MST [2, 19]: 10.1 days
- MST [2, 20]: 15.8 days
- MST [2, 21]: 11.1 days
- MST [2, 22]: 11.1 days
- % ILS [2, 14]: +22%
- % ILS [2, 15]: +17%
- % ILS [2, 16]: +17%
- % ILS [2, 17]: +18%
- % ILS [2, 18]: +12%
- % ILS [2, 19]: +5%
- % ILS [2, 20]: +38%
- % ILS [2, 21]: +16%
- % ILS [2, 22]: +13%
- Relative Tumor Growth Day 21 [3, 7]: 9.55
- Relative Tumor Growth Day 21 [3, 13]: 3.35
- Relative Tumor Growth Day 21 [3, 9]: 5.30
- Relative Tumor Growth Day 21 [3, 11]: 8.58
